Measured values as given in patent US9891235B2, “Pathway specific assays for predicting irritable bowel syndrome diagnosis” (NESTEC S.A., priority 2013, dated 2018).

How the values were obtained:
anti-KYA-L antibody = test: Competitive assay with biotinylated kynurenic acid, competitors; assay type: binding, rabbit; conditions: increasing amounts of competitor, FIG. 18
Experimental: Also, the cross-reactivity of the antiserum was tested using a competitive assay as diagramed in FIG. 12B. The biotinylated antigen (e.g., biotinylated Ser-D) was coated onto a streptavidin plate. Serotonin (5-HT) or pathway metabolites thereof (e.g., Tryp, 5-OH Tryp or 5-HIAA) in human serum were derivatized and added to the antiserum. The mixture was added to the plate and incubated for 1 hour at RT. The plate was washed several times with wash buffer. The goat anti-rabbit antibody-HRP conjugate solution was added and incubated for 1 hour at RT. The plate was washed several times in wash buffer. A color substrate was added for the colorimetric reaction and stop solution was added prior to reading the plate at 405 nm.
The cross-reactivity of the anti-KYA-L antibody was tested using the competitive assay described above. Briefly, kynurenic acid metabolites, such as L-kynurenine (Ky), 3-hydroxy-DL-kynurenine (H-Ky) and L-tryptophan (Tryp) were used to compete with biotinylated kynurenic acid for antibody binding.

[1] = Stability of 5-HT and 5-HIAA (TLC, loss of signal); assay type: physicochemical

SMILES | effect of competitor on level of anti-KYA-L detected (anti-KYA-L antibody) | sensitivity to oxygen / stability [1] | time in which degradation occurs ([1]; 4° C., from thawing, TLC (FIG. 3)) | stability (FIG. 4) ([1]; during a period of 1 week)
Nc1c(O)cccc1C(=O)CC(N)C(=O)O (racemic) [H-Ky, 3-hydroxy-DL-kynurenine] | did not change |  |  | 
NCCc1c[nH]c2ccc(O)cc12 [Compound 5-HT, serotonin] |  | very unstable | about 7 hours | unstable
NCCCCCC(=O)Nc1ccc2nc(C(=O)O)cc(O)c2c1 [KYA-L, 6-(6-aminohexanamido)-4-hydroxyquinoline-2-carboxylic acid] | competed |  |  | 
Nc1ccccc1C(=O)C[C@H](N)C(=O)O [Ky, L-kynurenine] | did not change |  |  | 
N[C@@H](Cc1c[nH]c2ccccc12)C(=O)O [Trypt, L-tryptophan] | did not change |  |  | 
